For one assay, the system named is H3K9me2 in HCT116 cells. The assay can be described thus: HCT116 H3K9me2 in-cell western assay. It counts as cell-based. The settings on record: Homo sapiens, HCT-116, 72 h, HCT116 cells, 72 hours incubation; read-out: H3K9me2 ICW IC50. The method, boiled down: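 HCT116 cells (2,000/well) were treated for 72 h at 37° C, 5% CO2, with ten two-fold dilutions from 10 μM in duplicate. After PFA fixation, cells were stained overnight at 4° C with anti-H3K9me2, then with an 800 CW secondary plus DRAQ5.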

The target of another assay is T1, human EHMT1 982-1266 (Homo sapiens, UniProt Q9H9B1).
T1 sequence (Q9H9B1 982-1266): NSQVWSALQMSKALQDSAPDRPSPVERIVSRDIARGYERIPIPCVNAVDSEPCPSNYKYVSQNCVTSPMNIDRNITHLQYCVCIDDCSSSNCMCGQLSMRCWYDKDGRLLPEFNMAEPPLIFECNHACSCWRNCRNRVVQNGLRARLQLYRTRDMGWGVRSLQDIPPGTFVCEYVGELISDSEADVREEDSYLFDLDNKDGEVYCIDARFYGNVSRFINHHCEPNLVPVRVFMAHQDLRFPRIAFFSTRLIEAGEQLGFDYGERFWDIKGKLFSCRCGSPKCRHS
Nature of the assay: EHMT1 enzyme assay on histone peptide substrate (3H-SAM SPA). Conditions: EHMT1 IC50, recombinant human EHMT1 982-1266, histone peptide substrate.

In the next assay the target is T2, human EHMT2 913-1193 (Homo sapiens, UniProt Q96KQ7).
T2 sequence (Q96KQ7 913-1193): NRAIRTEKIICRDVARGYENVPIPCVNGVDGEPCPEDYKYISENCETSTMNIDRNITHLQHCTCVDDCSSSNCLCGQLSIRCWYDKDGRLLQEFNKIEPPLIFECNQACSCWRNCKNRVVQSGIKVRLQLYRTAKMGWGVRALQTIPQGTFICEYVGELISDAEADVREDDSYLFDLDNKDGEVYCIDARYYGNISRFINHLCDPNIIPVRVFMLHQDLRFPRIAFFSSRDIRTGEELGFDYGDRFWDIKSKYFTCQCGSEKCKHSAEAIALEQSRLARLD
Nature of the assay: EHMT2 enzyme assay on histone peptide substrate (3H-SAM SPA). The settings on record: EHMT2 IC50, recombinant human EHMT2 913-1193, histone peptide substrate.

In general, IC50 refers to the midpoint of a concentration-inhibition curve.

Molecules are shown by their SMILES. A value given as a limit tells only on which side of the number the result lay.

Turning to `CNc1nc(Nc2cc3c(c(C4=CCNCCC4)c2F)OCCO3)nc(C)c1F` [Compound 197], the IC50 in the assay with H3K9me2 in HCT116 cells was 0.1 to 0.5 µM; on human EHMT1 982-1266 it was 0.1 to 0.5 µM; at human EHMT2 913-1193, 0.5 to 2 µM.
Turning to `CNc1cc(C)nc(Nc2cc(OCCCN3CCCC3)c3occc3c2)n1` [Compound 102, N4,6-dimethyl-N2-[7-(3-pyrrolidin-1-ylpropoxy)benzofuran-5-yl]pyrimidine-2,4-diamine], the IC50 in the assay on H3K9me2 in HCT116 cells was 0.5 to 2 µM; on human EHMT1 982-1266 it was 0.1 to 0.5 µM; on human EHMT2 913-1193, 0.5 to 2 µM.
On to `Cc1cc(NC2COC2)cc(Nc2cc3c(c(C4=CCN(C)CCC4)c2)OCC3)n1` [Compound 312], for which the IC50 with H3K9me2 in HCT116 cells lay in the range of 0.5 to 2 µM; on human EHMT1 982-1266, 0.1 to 0.5 µM; at human EHMT2 913-1193, 0.5 to 2 µM.
In the case of `Cc1cc(NCC2CCCO2)nc(Nc2cc3c(c(C4=CCN(C)CCC4)c2)OCC3)n1` (stereo not drawn) [Compound 292], the IC50 in the assay on H3K9me2 in HCT116 cells, on human EHMT1 982-1266 and on human EHMT2 913-1193 was 0.1 to 0.5 µM in each case.
As to `[2H]C([2H])([2H])Nc1cc(C)nc(Nc2cc3c(c(C4=CCNCCC4)c2)OCO3)n1` [Compound 281], the IC50 with H3K9me2 in HCT116 cells, at human EHMT1 982-1266 and at human EHMT2 913-1193 was below 0.1 µM in each case.
With `Cc1cc(NCC2CCOCC2)nc(Nc2cc3c(c(C4=CCN(C)CCC4)c2)OCC3)n1` [Compound 299], the IC50 in the assay on H3K9me2 in HCT116 cells was 0.1 to 0.5 µM; at human EHMT1 982-1266, below 0.1 µM; on human EHMT2 913-1193, 0.1 to 0.5 µM.
On to `[2H]Cc1cc(NC)nc(Nc2cc3c(c(C4=CCNCCC4)c2)OCO3)n1` [Compound 269], for which the IC50 in the assay on H3K9me2 in HCT116 cells, at human EHMT1 982-1266 and at human EHMT2 913-1193 was below 0.1 µM throughout.
With `CNc1cc(C)nc(Nc2cc3c(c(C4=C[C@@H]5CNC[C@@H]5C4)c2F)OCC3)n1` (racemic) [Compound 359, N2-[7-(1,2,3,3a,6,6a-hexahydrocyclopenta[c]pyrrol-5-yl)-6-fluoro-2,3-dihydrobenzofuran-5-yl]-N4,6-dimethyl-pyrimidine-2,4-diamine], the IC50 was 0.1 to 0.5 µM in the assay with H3K9me2 in HCT116 cells, below 0.1 µM on human EHMT1 982-1266 and 0.1 to 0.5 µM at human EHMT2 913-1193.
For `[2H]Cc1nc(Nc2cc3c(c(C4=CCN(C)CCC4)c2F)OCC3)nc(NC)c1F` [Compound 221], the IC50 is below 0.1 µM in the assay on H3K9me2 in HCT116 cells, 0.1 to 0.5 µM on human EHMT1 982-1266 and 0.5 to 2 µM on human EHMT2 913-1193.
Taken in the same sequence, the figures for `CNc1cc(C)nc(Nc2cc3c(c(C4=CCN(C)CCC4)c2)CCO3)n1` [Compound 333] were 0.5 to 2 µM, 0.1 to 0.5 µM and 0.5 to 2 µM.
Taken in the same sequence, the figures for `CCNc1nc(Nc2cc3c(c(C4=CCN(C)CCC4)c2F)OCC3)nc(C)c1F` [Compound 241] were 0.1 to 0.5 µM, 0.1 to 0.5 µM and 0.5 to 2 µM.
Taken in the same sequence, the figures for `CNc1cc(C)nc(Nc2cc3c(c(C4=CCNC[C@@H](O)C4)c2F)OC[C@@H]3C)n1` (stereo in doubt) [Compound 422, rel-(3S)-5-[rel-(3R)-6-fluoro-3-methyl-5-[[4-methyl-6-(methylamino)pyrimidin-2-yl]amino]-2,3-dihydrobenzofuran-7-yl]-2,3,4,7-tetrahydro-1H-azepin-3-ol] were below 0.1 µM, below 0.1 µM and below 0.1 µM.
For `[2H]C([2H])([2H])CNc1cc(C)nc(Nc2cc3c(c(C4=CCN(C)CCC4)c2)OCCC3)n1` [Compound 259], the IC50 is 0.1 to 0.5 µM in the assay on H3K9me2 in HCT116 cells, below 0.1 µM on human EHMT1 982-1266 and 0.1 to 0.5 µM at human EHMT2 913-1193.
On to `CNc1cc(C)nc(Nc2cc3c(c(C4=CCNCCC4)c2F)OCC3(C)C)n1` [Compound 178], for which the values for the IC50 with H3K9me2 in HCT116 cells, on human EHMT1 982-1266 and on human EHMT2 913-1193 were below 0.1 µM, below 0.1 µM and 0.1 to 0.5 µM, respectively.
`[2H]C([2H])([2H])CNc1cc(C)nc(Nc2cc3c(c(C4=CCN(C)CCC4)c2)OCO3)n1` [Compound 244]: the IC50 in the assay with H3K9me2 in HCT116 cells is 0.1 to 0.5 µM; at human EHMT1 982-1266, below 0.1 µM; at human EHMT2 913-1193, 0.1 to 0.5 µM.
Regarding `Cc1cc(NCC(F)(F)F)nc(Nc2cc3c(c(C4=CCN(C)CCC4)c2)OCC3)n1` [Compound 320], the IC50 in the assay on H3K9me2 in HCT116 cells was 0.1 to 0.5 µM; at human EHMT1 982-1266 it was 0.1 to 0.5 µM; on human EHMT2 913-1193, 0.5 to 2 µM.
`CNc1cc(C)nc(Nc2cc3c(c(C4=CCN(C)C(C)CC4)c2F)OCC3)n1` (stereo not drawn) [Compound 204]: the IC50 in the assay with H3K9me2 in HCT116 cells, on human EHMT1 982-1266 and on human EHMT2 913-1193 was below 0.1 µM in each case.

These data come from patent publication US20240368139A1, “NOVEL MODULATORS OF EHMT1 AND EHMT2 AND THERAPEUTIC USE THEREOF” (Tango Therapeutics, Inc., priority 2021, published 2024).
